How the values were obtained:
[1] = Compound chemical stability in PBS (pH 6.5); assay type: physicochemical
Method: (§1) Compounds 1-6 were assessed for their stability in various environments, including phosphate buffered saline (PBS), simulated gastric fluid (SGF) with pepsin, SGF without pepsin, and mouse plasma, using standard stability assay protocols.

[2] = Compound chemical stability in SGF with pepsin; assay type: physicochemical
Method: as §1

[3] = Compound chemical stability in SGF without pepsin; assay type: physicochemical
Method: as §1

[4] = Compound mouse plasma stability; assay type: in vitro ADME
Method: as §1

Compound | % Remaining ([1]; 0 minutes) [%] | % Remaining ([1]; 30 minutes) [%] | % Remaining ([1]; 60 minutes) [%] | % Remaining ([1]; 120 minutes) [%] | % Remaining ([1]; 240 minutes) [%] | % Remaining ([2]; 0 minutes) [%] | % Remaining ([2]; 30 minutes) [%] | % Remaining ([2]; 60 minutes) [%] | % Remaining ([2]; 120 minutes) [%] | % Remaining ([2]; 240 minutes) [%] | % Remaining ([3]; 0 minutes) [%] | % Remaining ([3]; 30 minutes) [%] | % Remaining ([3]; 60 minutes) [%] | % Remaining ([3]; 120 minutes) [%] | % Remaining ([3]; 240 minutes) [%] | % Remaining ([4]; 0 minutes) [%] | % Remaining ([4]; 30 minutes) [%] | % Remaining ([4]; 60 minutes) [%] | % Remaining ([4]; 120 minutes) [%] | % Remaining ([4]; 240 minutes) [%]
CCOC(=O)N(CCc1cc(OC)ccc1OC)Cc1cc(C)cc(Cl)c1 [Compound 5, Ethyl (3-chloro-5-methylbenzyl)(2,5-dimethoxyphenethyl)carbamate] | 100 | 96 | 99 | 101 | 94 | 100 | 97 | 92 | 90 | 80 | 100 | 100 | 88 | 94 | 101 | 100 | 88 | 86 | 91 | 87
COc1ccc(OC)c(CCN(Cc2cc(C)cc(Cl)c2)Cc2oc(=O)oc2C)c1 [Compound 2, 4-(((3-Chloro-5-methylbenzyl)(2,5-dimethoxyphenethyl)amino)methyl)-5-methyl-1,3-dioxol-2-one] | 100 | 66 | 43 | 15 | 2 | 100 | 93 | 93 | 84 | 70 | 100 | 100 | 96 | 86 | 72 | 100 | 73 | 61 | 41 | 20
COc1ccc(OC)c(CCN(Cc2cc(C)cc(Cl)c2)C(=O)OC(C)OC(=O)C(C)(C)C)c1 (stereo not shown) [Compound 4, 1-(((3-Chloro-5-methylbenzyl)(2,5-dimethoxyphenethyl)carbamoyl)oxy)ethyl pivalate] | 100 | 102 | 101 | 102 | 116 | 100 | 93 | 96 | 94 | 105 | 100 | 90 | 89 | 96 | 88 | 100 | 2 | 1 | 00 | 00
COc1ccc(OC)c(CCN(Cc2cc(C)cc(Cl)c2)C(=O)OCc2oc(=O)oc2C)c1 [Compound 3, (5-Methyl-2-oxo-1,3-dioxol-4-yl)methyl (3-chloro-5-methylbenzyl)(2,5-dimethoxyphenethyl)carbamate] | 100 | 97 | 94 | 89 | 67 | 100 | 105 | 105 | 93 | 106 | 100 | 105 | 109 | 106 | 107 | 100 | 00 | 00 | 00 | 00
COc1ccc(OC)c(CCN(Cc2cc(C)cc(Cl)c2)C(=O)CN)c1 [Compound 6, 2-Amino-N-(3-chloro-5-methylbenzyl)-N-(2,5-dimethoxyphenethyl)acetamide] | 100 | 91 | 94 | 93 | 93 | 100 | 95 | 97 | 96 | 94 | 100 | 98 | 99 | 95 | 96 | 100 | 85 | 82 | 89 | 86
